# Data published in US20130251730A1, “Compounds and Mixtures Influencing Inflammatory States” (SYMRISE AG, priority 2012, published 2013).
# Marks after values point to notes of the source that are not given here.
# Key:
# [1] = test system: IL-6 release by human gingival fibroblastic cells (HGF-1); test: Release of IL-6 by HGF-1 cells after stimulation with 10 μg/ml PG-LPS (magnetic bead assay); format: cell-based
# Procedure: Human gingival fibroblastic cells (HGF-1) were sowed out in 24-well plates with 15,000 cells per well and cultivated for 3 to 5 days. DNEM containing 10% FBS, 1% penicillin/streptomycin and 4% glutamine was used as the medium. For determination of the anti-inflammatory action the cells were incubated with 10 μg/ml PG-LPS for 6 and 9 hrs. Subsequently, the release of IL-6 and IL-8 per magnetic bead was determined (Procarta, Affimetrix) using a MAGPIX equipment (Merck-Millipore) and analysed using the Milliplex software (Merck Millipore). In each case 4 samples with two technical replicates were measured. In addition to this control the cells were co-incubated with • (a) 10 μg/ml PG-LPS and also with • (b) solutions of the Herba Santa extract according to Example 1 (HS, containing 21.7% HED, […]); • (c) the flavonoid fraction (“FF”) obtained as a by-product according to Example 4 (containg 41.5% HED, […]); • (d) the extract rich in erionic acid (“ES”) according to Example 4 or isolated erionic acid B (according to Example 2) and • (e) erionic acid C according to Example 3 (each 0,1 μM, 1 μM and 10 μM).
# (§1) After incubation the cell culture medium was transferred into an Eppendorf reaction vessel and at 4° C. for 10 min subjected to centrifugation (1000×g) in order to separate the cell depris. The upper layer was stored at −80° C. until the analysis started. The results of the release of IL-6 and […]
# [2] = test system: IL-8 release by human gingival fibroblastic cells (HGF-1); test: Release of IL-8 by HGF-1 cells after stimulation with 10 μg/ml PG-LPS (magnetic bead assay); format: cell-based
# Procedure: Human gingival fibroblastic cells (HGF-1) were sowed out in 24-well plates with 15,000 cells per well and cultivated for 3 to 5 days. DNEM containing 10% FBS, 1% penicillin/streptomycin and 4% glutamine was used as the medium. For determination of the anti-inflammatory action the cells were incubated with 10 μg/ml PG-LPS for 6 and 9 hrs. Subsequently, the release of IL-6 and IL-8 per magnetic bead was determined (Procarta, Affimetrix) using a MAGPIX equipment (Merck-Millipore) and analysed using the Milliplex software (Merck Millipore). In each case 4 samples with two technical replicates were measured. In addition to this control the cells were co-incubated with • (a) 10 μg/ml PG-LPS and also with • (b) solutions of the Herba Santa extract according to Example 1 (HS, containing 21.7% HED, 0.1 μM, 1 μM and 10 μM calculated on HED); • (c) the flavonoid fraction (“FF”) obtained as a by-product according to Example 4 (containg 41.5% HED, 0,1 μM, 1 μM and 10 μM calculated on HED); • (d) the extract rich in erionic acid (“ES”) according to Example 4 or isolated erionic acid B (according to Example 2) and • (e) erionic acid C according to Example 3 (each 0,1 μM, 1 μM and 10 μM).
# as §1
# [3] = 10 μg/ml PG-LPS + 1 μg/ml test substance, 6 h
# [4] = 10 μg/ml PG-LPS + 1 μg/ml test substance, 9 h
# [5] = 10 μg/ml PG-LPS + 10 μg/ml test substance, 6 h
# [6] = 10 μg/ml PG-LPS + 10 μg/ml test substance, 9 h
# [7] = 10 μg/ml PG-LPS + 100 μg/ml test substance, 6 h
# [8] = 10 μg/ml PG-LPS + 100 μg/ml test substance, 9 h
# [9] = co-incubation with 10 μg/ml PG-LPS, 6 and 9 hrs, 0.1, 1 and 10 μM
smiles,measurement,setting,value
"CC(CCc1cc(C(=O)O)cc2c1OC(C)(C)C(O)C2)C(=O)/C=C/C(C)(C)O (centres unmarked) [Erionic acid B, 3-hydroxy-8-((E)-7-hydroxy-3,7-dimethyl-4-oxo-oct-5-enyl)-2,2-dimethyl-chroman-6-carboxylic acid]",IL-6 T/C [%],[1]; [3],61.93* %
same,IL-6 T/C [%],[1]; [4],77.51* %
same,IL-6 T/C [%],[1]; [5],102.30%
same,IL-6 T/C [%],[1]; [6],61.47*** %
same,IL-6 T/C [%],[1]; [7],41.30** %
same,IL-6 T/C [%],[1]; [8],102.74%
same,release of IL-6,[1]; [9],significant reduction
same,IL-8 T/C [%],[2]; [3],79.91%
same,IL-8 T/C [%],[2]; [4],77.33%
same,IL-8 T/C [%],[2]; [5],134.54** %
same,IL-8 T/C [%],[2]; [6],71.35%
same,IL-8 T/C [%],[2]; [7],46.30** %
same,IL-8 T/C [%],[2]; [8],116.34%
same,release of IL-8,[2]; [9],significant reduction
